Reference: patent US7585891B2, “Pesticidal (dihalopropenyl)phenylalkyl substituted benzodioxolane and benzodioxole derivatives” (FMC Corporation, priority 2003, dated 2009)

Key:
tobacco budworm = test: foliar treated test against tobacco budworm on chick pea plants; format: in vivo, Heliothis virescens; details: 96 hour exposure, dead plus moribund insects
Experimental: Certain compounds of formula I were tested against tobacco budworm on plant foliage. The foliar treated test against tobacco budworm were conducted in the following manner:
Nine-to-ten day-old chick pea plants (Cicer arietinum) were sprayed at 15 psi to runoff on both upper and lower leaf surfaces with solutions of test compound to provide application rates as high as 1000 ppm of test chemical. The solvent used to prepare the solutions of test compound was 10% acetone or methanol (v/v) and 0.1% of the surfactant octylphenoxypolyethoxyethanol in distilled water. Four replicates, each containing one chick pea plant, for each rate of application of test compound were sprayed. The treated plants were transferred to a hood where they were kept until the spray had dried.
The four chick pea plants for each replicate treated with test compound as described above were removed from their pots by cutting the stems just above the soil line. The excised leaves and stems from the four plants in each replicate were placed in individual 237 mL (8-ounce) paper cups, which contained a moistened filter paper. Five second-instar tobacco budworm (7 days old) were counted into each cup, taking care not to cause injury. An opaque plastic lid was placed on each cup, which was then held in a growth chamber for a 96 hour exposure period at 25° C., 50% relative humidity and photo-period of 12 hours light and 12 hours dark. At the end of the 96 hour exposure period the cups were opened, and the numbers of dead, moribund, and live insects were counted. Using the insect counts, the efficacy of the test compound was expressed in percent control. Percent control is derived from the total number of dead insects (TD) plus the total number of moribund insects (TM) as compared to the total number of insects (TI) in the test:
The condition of the test plants was also observed for phytotoxicity and for reduction of feeding damage as compared to an untreated control.

[1] = system: tobacco budworm (Heliothis virescens [Fabricius]); test: surface-treated diet test against tobacco budworm; format: in vivo; details: 0.25 millimolar on the surface of the diet, second instar larvae, five-day exposure; for Percent Growth Inhibition: insect weight relative to untreated controls
Source text: The test compounds of formula I are identified by numbers that correspond to those in Table 1.

[2] = 30 ppm foliar spray on chick pea
[3] = 10 ppm foliar spray on chick pea

Structure (SMILES) | Percent Control (tobacco budworm; [2]) [%] | Percent Control (tobacco budworm; [3]) [%] | Percent Growth Inhibition [1] [%] | Percent Mortality [1] [%]
CC1(C)Cc2cc(Cl)cc(OCCOc3c(Cl)cc(OCC=C(Cl)Cl)cc3Cl)c2O1 [Compound 1] | 70 | – | – | –
CC1(C)Oc2cccc(OCCCCOc3c(Cl)cc(OCC=C(Cl)Cl)cc3Cl)c2O1 [Compound 2, 5-(3,3-Dichloroprop-2-enyloxy)-2-[4-(2,2-dimethylbenzo[d]1,3-dioxolan-4-yloxy)butoxy]-1,3-dichlorobenzene] | 100 | 85 | 100 | –
CC1(C)Oc2ccc(OCCCCOc3c(Cl)cc(OCC=C(Cl)Cl)cc3Cl)cc2O1 [Compound 4, 5-{4-[4-(3,3-dichloroprop-2-enyloxy)-2,6-dichlorophenoxy]butoxy}-2,2-dimethylbenzo[d]1,3-dioxolane] | 100 | 83 | 100 | –
FC1(F)Oc2ccc(OCCCCOc3c(Cl)cc(OCC=C(Cl)Cl)cc3Cl)cc2OC1(F)F [Compound 9, 5-(3,3-Dichloroprop-2-enyloxy)-1,3-dichloro-2-[4-(2,2,3,3-tetrafluorobenzo[3,4-e]1,4-dioxan-6-yloxy)butoxy]benzene] | 100 | – | 100 | 100
